Results taken from patent publication EP0405436B1, “Dihetero nitrogen-containing cycloheteroethanoanthracene derivatives as antipsychotic agents” (G.D. Searle & Co., priority 1989, dated 1991).
Read-outs that look alike come from different tables or passages of the source.

What was measured:
[1] = test system: apomorphine-induced climbing; assay: Blockade of apomorphine-induced climbing; assay type: in vivo, Swiss-Webster mice; settings: Mus musculus; mice, i.p. or s.c. pretreatment; 2 mg/kg apomorphine s.c.; rated at 10 and 20 minutes; read-out: Blockade of Apomorphine-induced Climbing ED₅₀
Procedure: Compounds of the invention were evaluated for their ability to block apomorphine-induced climbing. The evaluation of the compounds followed the method outlined by Protais [Psychopharmacol., 50, 1-6, 1976]. Swiss-Webster mice, weighing 20-25 g, are pretreated with the compounds of the invention by i.p. or s.c. administration at various times before 2 mg/kg apomorphine is administered s.c in a volume of 1 ml/kg. All test compounds are administered in a volume of 10 ml/kg. Mice are rated at 10 and 20 minutes after apomorphine administration using the following rating scale: (0) forepaws on the floor, (1) forefeet holding the bars, and (2) four paws holding bars. Dose-response curves are analyzed by a computerized Finney assay [Statistical Methods in Biological Assays, 2nd Edn., Hatner Pub. Co., New York (1964)].

[2] = biological target: sigma receptor (Rattus norvegicus, UniProt Q9R0C9); assay type: binding, male Sprague-Dawley rats
Procedure: To determine the effects of the compounds in a sigma receptor assay, crude membrane preparations were prepared as follows. Brains from male Sprague-Dawley rats were homogenized in 10 volumes (wt/vol) of 0.32 M sucrose, using a Polytron grinder. The homogenate was centrifuged at 900 X G for 10 minutes at 4°C. The supernatant was collected and centrifuged at 22,000 X g for 20 minutes at 4°C. The pellet was resuspended in 10 volumes of 50 mM Tris/HCl buffer (pH 7.4) and centrifuged at 22,000 X g for 20 minutes at 4°C. The pellet was resuspended in 5 mM Tris/HCl buffer (pH 7.4) to give a final concentration of 250 mg/ml of the crude material. Incubation tubes were prepared in triplicate and contained 0.1 ml of tissue suspension, 2 nM of [³H]-(+)-1-propyl-3-(3-hydroxyphenyl)piperidine {[³H]-3-(+)-PPP}, and varying concentrations of the displacing ligand (0.1-1000 nM) in a final volume of 0.5 ml. After a 1 hr incubation at room temperature, the contents of the test tubes were filtered through GS filter paper which had been presoaked for at least 2 hours in 0.05% polyethyleneimine. The test tubes were rinsed three times with Tris/HCl buffer. Radioactivity on the filters was determined using […] [Biochem. Pharmacol., 22, 3099-3108, 1973].

[3] = read-out: Ki apparent (nM) (units ± SEM); rat brain membranes, 2 nM [³H]-3-(+)-PPP, 1 hr at room temperature, displacing ligand 0.1-1000 nM

sigma receptor, sequence (Q9R0C9 whole entry): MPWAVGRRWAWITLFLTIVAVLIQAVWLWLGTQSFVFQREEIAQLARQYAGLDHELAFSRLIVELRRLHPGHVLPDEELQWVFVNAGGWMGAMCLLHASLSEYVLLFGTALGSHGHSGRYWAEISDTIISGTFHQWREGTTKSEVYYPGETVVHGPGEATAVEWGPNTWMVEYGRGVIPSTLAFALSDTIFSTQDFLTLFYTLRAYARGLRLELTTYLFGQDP

| SMILES | ED50 [1] | Ki [2, 3] | Ki ([2]; rat brain membranes, 2 nM [³H]-3-(+)-PPP, 1 hr at room temperature, displacing ligand 0.1-1000 nM; read-out: Ki apparent (nM) (units ± SEM)) |
| --- | --- | --- | --- |
| CN1CCN(CC2CC3c4ccccc4C2c2ccccc23)CC1 (stereo not drawn) [Compound No. 1, 4-[(9,10-Dihydro-9,10-ethanoanthracenyl)methyl]-1-methylpiperazine] | 1 mg/kg | 120 ± 20 nM | – |
| c1ccc2c(c1)C1CC(CN3CCN4CCCC4C3)C2c2ccccc21 (stereo not drawn) [Compound No. 4, 4-[(9,10-dihydro-9,10-ethanoanthracenyl)methyl]-1,4-diazabicyclo[4.3.0]nonane] | – | 20 ± 3 nM | – |
| OCCN1CCN(CC2CC3c4ccccc4C2c2ccccc23)CC1 (stereo not drawn) [Compound No. 2, 4-[(9,10-dihydro-9,10-ethanoanthracenyl)methyl]-1-(2-hydroxyethyl)-piperazine] | 1 mg/kg | 21 ± 6 nM | – |
| c1cnc(N2CCN(CC3CC4c5ccccc5C3c3ccccc34)CC2)nc1 (stereo not drawn) [Compound No. 3, 4-[(9,10-Dihydro-9,10-ethanoanthracenyl)methyl]-1-(2-pyrimidyl)piperazine] | – | > 1000 nM | – |
| CN1CCN(C(=O)C2CC3c4ccccc4C2c2ccccc23)CC1 (stereo not drawn) [Compound No. 5, reference compound] | – | – | > 1000 nM |
| c1ccc(CN2CCN(CC3CC4c5ccccc5C3c3ccccc34)CC2)cc1 (stereo not drawn) [Compound No. 6, 4-[(9,10-Dihydro-9,10-ethanoanthracenyl)methyl]-1-benzylpiperazine] | 10 mg/kg | 98 ± 18 nM | – |
